Laboratory results as given in ChEMBL document CHEMBL4428116, “Synthesis, molecular modeling and SAR study of novel pyrazolo[5,1-f][1,6]naphthyridines as CB2 receptor antagonists/inverse agonists” (Bioorg Med Chem, 2016).
Activity calls are given as the source filed them. No cut-off for these calls is given here.

Columns and labels:
Cannabinoid receptor 1 = Cannabinoid receptor 1 (Homo sapiens, UniProt P21554); experiment: Displacement of [3H]CP-55,940 from human CB1 receptor expressed in CHO cell membrane after 90 mins by scintillation counting method; format: cell membranes
Cannabinoid receptor 1, sequence (P21554 whole entry): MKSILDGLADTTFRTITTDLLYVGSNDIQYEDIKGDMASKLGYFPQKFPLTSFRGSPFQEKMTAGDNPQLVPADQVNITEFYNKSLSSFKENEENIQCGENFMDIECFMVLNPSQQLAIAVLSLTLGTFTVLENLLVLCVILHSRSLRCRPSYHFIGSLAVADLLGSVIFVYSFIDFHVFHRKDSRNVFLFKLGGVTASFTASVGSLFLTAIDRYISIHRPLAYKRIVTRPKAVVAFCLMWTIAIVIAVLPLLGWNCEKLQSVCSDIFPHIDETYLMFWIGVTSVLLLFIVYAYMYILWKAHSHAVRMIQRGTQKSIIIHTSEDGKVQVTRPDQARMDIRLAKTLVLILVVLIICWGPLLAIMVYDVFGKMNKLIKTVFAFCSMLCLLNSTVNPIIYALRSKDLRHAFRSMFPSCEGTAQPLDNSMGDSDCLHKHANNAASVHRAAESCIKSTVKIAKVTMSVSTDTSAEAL

Cannabinoid receptor 2 [1] = target: T1, Cannabinoid receptor 2 (Homo sapiens, UniProt P34972); experiment: Displacement of [3H]CP-55,940 from human CB2 receptor expressed in CHO cell membrane after 60 mins by scintillation counting method; format: cell membranes
T1 sequence (P34972 whole entry): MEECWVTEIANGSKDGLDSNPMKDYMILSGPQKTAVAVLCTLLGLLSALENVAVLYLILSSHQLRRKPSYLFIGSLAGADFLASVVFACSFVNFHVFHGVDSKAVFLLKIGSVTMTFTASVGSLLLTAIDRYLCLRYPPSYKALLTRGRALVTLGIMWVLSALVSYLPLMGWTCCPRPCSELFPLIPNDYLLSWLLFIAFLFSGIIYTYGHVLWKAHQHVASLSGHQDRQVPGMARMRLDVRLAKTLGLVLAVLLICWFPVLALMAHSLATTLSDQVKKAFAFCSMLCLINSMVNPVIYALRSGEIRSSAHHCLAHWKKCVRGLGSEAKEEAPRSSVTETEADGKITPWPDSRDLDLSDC

Homo sapiens = organism: Homo sapiens; experiment: Selectivity ratio of Ki for human CB1 receptor expressed in CHO cell membrane to Ki for human CB2 receptor expressed in CHO cell membrane; format: cell-based
Cannabinoid receptor 2 [2] = target: T1, Cannabinoid receptor 2; experiment: Antagonist activity at human CB2 receptor expressed in CHO cells assessed as inhibition of WIN 55,212-2-induced reduction in forskolin-stimulated cAMP accumulation at 0.1 to 10 uM by immunoassay; format: functional, cell-based
Cannabinoid receptor 2 [3] = target: T1, Cannabinoid receptor 2; experiment: Antagonist activity at human CB2 receptor expressed in CHO cells assessed as inhibition of WIN 55,212-2-induced reduction in forskolin-stimulated cAMP accumulation by Schild plot analysis; format: functional, cell-based
Cannabinoid receptor 2 [4] = target: T1, Cannabinoid receptor 2; experiment: Inverse agonist activity at human CB2 receptor expressed in CHO cells assessed as increase in forskolin-stimulated cAMP production at 1 to 10 uM by immunoassay; format: functional, cell-based
Cannabinoid receptor 2 [5] = target: T1, Cannabinoid receptor 2; experiment: Antagonist activity at human CB2 receptor expressed in CHO cells assessed as inhibition of WIN 55,212-2-induced reduction in forskolin-stimulated cAMP accumulation by immunoassay; format: functional, cell-based
Cannabinoid receptor 2 [6] = target: T1, Cannabinoid receptor 2; experiment: Inverse agonist activity at human CB2 receptor expressed in CHO cells assessed as increase in forskolin-stimulated cAMP production at 0.1 uM by immunoassay; format: functional, cell-based
Mus musculus = organism: Mus musculus; experiment: Selectivity ratio of Ki for CB1 receptor in CD-1 mouse cerebellum membrane to Ki for CB2 receptor in CD-1 mouse spleen homogenate; format: cell membranes

Row | SMILES | Ki (Cannabinoid receptor 1) | Ki (Cannabinoid receptor 2 [1]) | Ratio Ki (Homo sapiens) | inhibition (Cannabinoid receptor 2 [2]) | Kb (Cannabinoid receptor 2 [3]) | Activity (Cannabinoid receptor 2 [4]) | inhibition (Cannabinoid receptor 2 [5]) | Activity (Cannabinoid receptor 2 [6]) | Ratio Ki (Mus musculus)
1 | CC1(C)C2CC[C@@H](CNC(=O)c3cc4c5cccnc5cc(-c5ccc(Cl)cc5Cl)n4n3)C1C2 (stereo partly specified) | > 10 µM | 0.067 µM | > 149 | Active | 0.65 µM | Active | – | – | –
2 | Cc1ccc(-c2cc3ncccc3c3cc(C(=O)NC4CCCCC4)nn23)cc1 | > 10 µM | 2.13 µM | > 4.7 | – | – | – | – | – | –
3 | Cc1ccc(-c2cc3ncccc3c3cc(C(=O)NN4CCCCC4)nn23)cc1 | > 10 µM | > 1 µM | – | – | – | – | – | – | –
4 | Cc1ccc(-c2cc3ncccc3c3cc(C(=O)NC4C5CC(C[C@@H]4C)C5(C)C)nn23)cc1 (stereo partly specified) | > 10 µM | 0.24 µM | > 42 | – | – | – | – | – | –
5 | Cc1ccc(-c2cc3ncccc3c3cc(C(=O)NC45CC6CC(CC(C6)C4)C5)nn23)cc1 | 5.7 µM | 0.033 µM | 173 | – | 0.316 µM | – | Dose-dependent effect | Active | –
6 | Cc1ccc(-c2cc3ncccc3c3cc(C(=O)N[C@H]4C5(C)CCC(C5)C4(C)C)nn23)cc1 (stereo partly specified) | 2.2 µM | 0.8 µM | 2.7 | – | – | – | – | – | –
7 | CC1=C(C(=O)c2cccc3ccccc23)C2C=CC=C3OC[C@@H](CN4CCOCC4)N1C32 (stereo partly specified) | 0.013 µM | – | 5.2 | – | – | – | – | – | –
8 | Cc1ccc(-c2cc3ncccc3c3cc(C(=O)NC4C5CC6CC(C5)CC4C6)nn23)cc1 (stereo unspecified) | > 10 µM | 0.133 µM | > 75 | – | – | – | – | – | –
9 | Cc1ccc(-c2cc3ncccc3c3cc(C(=O)N[C@@H]4C[C@H](C)CC[C@H]4C(C)C)nn23)cc1 | 3.3 µM | 0.28 µM | 12 | – | – | – | – | – | –
10 | Cc1ccc2c(c1)Cc1c(C(=O)NN3CCCCC3)nn(-c3ccc(Cl)cc3Cl)c1-2 | – | – | – | – | – | – | – | – | 9810
11 | Cc1ccc(-c2cc3ncccc3c3cc(C(=O)NC[C@@H]4CCC5CC4C5(C)C)nn23)cc1 (stereo partly specified) | > 10 µM | 0.12 µM | > 83 | – | – | – | – | – | –
12 | Cc1ccc(-c2cc3ncccc3c3cc(C(=O)N[C@H]4CC5CCC4(C)C5(C)C)nn23)cc1 (stereo partly specified) | 7 µM | 0.053 µM | 132 | Active | 0.505 µM | Active | – | – | –
